Source: paper PMC11240924, “Isolation, Identification, and Biological Activities of a New Chlorin e6 Derivative” (International Journal of Molecular Sciences, 2024)

Test: Singlet oxygen photogeneration (DPBF quenching)
Conditions: 1 µM, DMSO, DPBF 50 μM, 660 nm laser 0.5 J/cm^2
Procedure: Singlet oxygen photoregeneration was carried out using 1, 3-diphenylisobenzofuran (DPBF) in DMSO. DPBF is a selective ^1O2 acceptor that reacts with ^1O2. The sample solutions of DPBF (50 μM) which contained DPBF only (50 μM, as a control), MB (1, 5, and 10 μM), chlorin e6 (1, 5, and 10 μM), and rhodin g7 7^1-ethyl ester (1, 5, and 10 μM) were prepared under dark conditions. All of the samples were placed in a 96-well plate, which was covered with aluminum foil. The samples were then irradiated (660 nm, 50 mW, 0.5 J/cm^2) for 1 min and 40 s, and after irradiation, the visible spectra of the sample solutions were measured spectrophotometrically. The normalized absorbance of DPBF at 418 nm was measured in these samples. The ^1O2 photo-generation activities of MB, chlorin e6, and rhodin g7 7^1-ethyl ester can be compared with the different absorbance decay of each sample relative to the DPBF control sample.

CN(C)c1ccc2nc3ccc(=[N+](C)C)cc-3sc2c1 [MB, Methylene blue, reference compound]
^1O2 generation (DPBF absorbance at 418 nm): 22.22%
